Laboratory results published in US9549912B2, “Methods for treating atrial fibrillation” (Armetheon, Inc., priority 2009, dated 2017).
Several values for one entry are separate records, joined by “and”; a condition that tells them apart may be missing. Identical values can stand only once. Entries after “also recorded” stand apart in the source; their conditions may differ.

Legend:
[1] = Trough plasma concentrations of ATI-2042 and metabolites (Example 1); assay type: in vivo, human
Experimental: Patients were enrolled within 8 weeks of screening. During the study, they were reviewed on days 1, 2, and 8 of each study period. ATI-2042 was increased on day 1 of each 2-week study period, following routine bloods for haematology, biochemistry, and coagulation screens. Plasma samples for pharmacokinetic analysis of ATI-2042 and its metabolites were taken at steady state at the end of each study period just prior to the first escalated dose of the subsequent period and within 15 min prior to the pre-dose ECG for that dose.
Trough concentrations of ATI-2042 and its metabolites (ATI-2000, ATI-2100, and ATI-2142), measured at pre-dose on day 1 of each of the four treatment periods and on days 1 and 8 of the washout period, were summarized by time point. Spearman's rank correlation was used to examine the relationship between trough concentrations of ATI-2042 and AFB.

[2] = tested on: subjects with paroxysmal atrial fibrillation who had implanted pacemakers; assay: Proof of concept study of ATI-2042 in PAF patients with pacemakers: AF burden and AF episodes (Example 1); assay type: in vivo, human
Source text: Epub 2009 Jan. 26). This study was a proof of concept design seeking preliminary information on the pharmacodynamic effects, safety, and tolerability of the investigational drug ATI-2042 at a variety of doses, in patients with PAF. Patients with advanced DDDRP pacemakers were selected because of the pacemaker's sophisticated diagnostics and the ability to record continuously and log asymptomatic as well as symptomatic episodes. Only post-menopausal or surgically sterile females with a significant PAF burden and pacemakers were included in this study. The pacemakers had to have been in situ for at least 1 month prior to the study and have appropriate arrhythmia diagnostics. In this study, Vitatron pacemakers, models Selection 9000 or T70 pacemakers, were used. […] Although this finding was explored further, it was prudent to commence clinical testing in a population not at risk for this effect. […] The patients underwent screening assessments to assess suitability for the study and to obtain a baseline medical history and examination. The value of this cohort was that the pacemaker was not inserted for bradycardia but for the treatment of AF using various prevention pacing and rate control techniques. The inclusion criteria were as follows: age 18-85 years; […] The initial ATI-2042 dosage for all subjects was 200 mg orally bid, and it was then increased by 200 mg bid for each subsequent study period. Patients received 200 mg bid of ATI-2042 during period 2, 400 mg bid during period 3, 600 mg bid during period 4 and 800 mg bid during period 5, and no drug was administered during baseline and washout periods. “Selection 9000” and “T70” pacemakers (Vitatron, […], The Netherlands) are dual-chamber pacemakers with sophisticated and similar algorithms for AF detection and prevention. Atrial fibrillation detection is based on atrial rate; atrial tachyarrhythmias are detected when the median atrial cycle length is less than that programmed for AT or AF detection. In all patients, atrial fibrillation was detected if the atrial rate was >200 bpm for six consecutive beats, and its end logged if the atrial rate dropped below 200 bpm for 10 beats. […] Pacemaker anti-arrhythmic algorithms were turned off prior to entry into the baseline period and remained turned off until after washout. […] The primary outcome measure, AFB, was defined as the duration of time the subject's cardiac rhythm was AF divided by the total time recorded for that study period, expressed as percent. The total duration of time that the rhythm was AF is a function of the number of PAF episodes and the duration of each episode. Therefore, a reduction in AFB can occur through reduction in either or both of these variables. Atrial fibrillation burden was compared with baseline during the treatment periods. Secondary outcome measures were the number of AF episodes, the safety of ATI-2042, and the incidence and severity of adverse events (AEs). […] Atrial fibrillation burden is given as the percentage of total storage duration. The sample size for this study was selected empirically. All patients who received any amount of study medication were included in the efficacy and safety analysis. Efficacy variables for the study group are described as mean and standard deviation for each study period. Due to the small number of subjects, comparisons of periods 2-6 with baseline were made using estimates from a mixed-effects regression model.

[3] = Safety, ECG and thyroid function (Example 1); assay type: in vivo, human
Experimental: Patients were then monitored for at least 3 h continuously post-dose; this included telemetry, vital signs, and oxygen saturations. Electrocardiograms were taken, and the pacemaker data were downloaded prior to drug administration on day 8 and day 14 of each study period.
Criteria for drug discontinuation included a fall in systolic blood pressure (BP) to <90 mmHg systolic, an increase in BP>200 mmHg, intolerable side-effects, a change in rhythm that in the opinion of the investigator constituted a risk to safety, or a QRS increase >50%. Where possible, ECGs of intrinsic rhythm rather than ventricular-paced rhythm were obtained, as paced complexes can be difficult to interpret for QT prolongation. An increase in QT interval >470 ms for intrinsic and >550 ms for paced beats or an increase of 30% was considered significant.
Electrocardiogram parameters (ventricular HR, PR, QRS, QT, QTc interval) were summarized by baseline, dosing period, and washout using descriptive statistics. Changes from baseline in ECG values at day 8 of dosing and day 14 of washout were also summarized. Baseline values of ECG parameters are defined as the mean of three values recorded prior to the first dose of ATI-2042.

[4] = target: cytochrome P450 2C9 (CYP2C9) (Homo sapiens, UniProt P11712); assay: CYP2C9 inhibition; assay type: in vitro ADME
Sequence of cytochrome P450 2C9 (CYP2C9) (P11712 whole entry): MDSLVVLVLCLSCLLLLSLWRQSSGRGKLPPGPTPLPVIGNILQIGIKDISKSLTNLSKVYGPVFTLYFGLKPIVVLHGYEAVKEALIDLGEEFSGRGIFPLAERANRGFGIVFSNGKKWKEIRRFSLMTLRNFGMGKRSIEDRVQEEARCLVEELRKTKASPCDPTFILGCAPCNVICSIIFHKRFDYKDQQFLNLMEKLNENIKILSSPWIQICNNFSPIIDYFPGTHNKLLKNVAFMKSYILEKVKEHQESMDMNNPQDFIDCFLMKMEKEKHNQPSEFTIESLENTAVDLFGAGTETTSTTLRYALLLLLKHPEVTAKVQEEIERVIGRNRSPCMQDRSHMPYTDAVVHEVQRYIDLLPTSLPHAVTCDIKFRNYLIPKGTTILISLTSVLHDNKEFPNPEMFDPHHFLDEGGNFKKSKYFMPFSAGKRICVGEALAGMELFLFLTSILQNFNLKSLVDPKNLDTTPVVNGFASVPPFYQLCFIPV

(S)-sec-butyl 2-(3-(4-(2-(diethylamino)ethoxy)-3,5-diiodobenzoyl)benzofuran-2-yl)acetate [ATI-2042]
mean trough level of ATI-2042 ([1]; 200 mg bid, steady state): 2.4 ± 0.9 ng/mL
mean trough level of ATI-2042 ([1]; 400 mg bid): 5.2 ± 1.7 ng/mL
mean trough level of ATI-2042 ([1]; 600 mg bid): 13.1 ± 5.6 ng/mL
mean trough level of ATI-2042 ([1]; 800 mg bid): 19.8 ± 17.9 ng/mL
trough level of ATI-2042 ([1]; washout): 0.3+0.4 ng/mL
mean AFB (SD) ([2]; 200 mg bid (p2), baseline 20.3+14.6%): 5.2+4.2%
mean AFB (SD) ([2]; 400 mg bid (p3)): 5.2+5.2%
mean AFB (SD) ([2]; 600 mg bid (p4)): 2.8+3.4%
mean AFB (SD) ([2]; 800 mg bid (p5)): 1.5 ± 0.5%
effect on AFB in refractory PAF patients ([2]; all doses): significantly effective in reducing AFB at all doses
decrease in AFB ([2]; all doses (200-800 mg bid)): at least 70%
number of AF episodes ([2]; on drug, remained elevated in washout): increased initially
relative reduction (RR) in AFB from baseline ([2]; p2, 200 mg bid): 71.2 ± 31.3%
mean episode duration (SD) ([2]; p2, 200 mg bid, baseline 4.8+5.2): 1.7+2.5 h
mean episode duration (SD) ([2]; p3, 400 mg bid): 0.6+0.7 h
relative reduction (RR) in AFB from baseline ([2]; p3, 400 mg bid): 71.7 ± 20.6%
mean episode duration (SD) ([2]; p4, 600 mg bid): 0.1+0.2 h
relative reduction (RR) in AFB from baseline ([2]; p4, 600 mg bid): 79.9 ± 26.4%
mean episode duration (SD) ([2]; p5, 800 mg bid): 0.5+0.7 h
relative reduction (RR) in AFB from baseline ([2]; p5, 800 mg bid): 86.8 ± 9.8%
mean episode duration (SD) ([2]; washout): 2.4+3.0 h
mean AFB (SD) ([2]; washout (p6), no drug): 11.7+14.0%
PR interval reduction from baseline ([3]; 200 mg bid): 16.6+23.9%
PR interval reduction from baseline ([3]; 400 mg bid): 11.4+22.6%
change in QTc from baseline, one patient ([3]; 400 mg bid, patient with AV node ablation, permanently paced): 30 to 60 ms
change in paced QTc from baseline, one patient ([3]; 400 mg bid, same patient): 15%
PR interval reduction from baseline ([3]; 600 mg bid): 27.0+32.1%
PR interval reduction from baseline ([3]; 800 mg bid): 35.1 ± 30.9%
tolerability ([3]; 200-800 mg bid): generally well tolerated
change from baseline QT or QTc with dosing ([3]; all patients, paced or not): No patient exhibited >30% change
changes in HR, QRS, QT, or QTc ([3]; between baseline and dosing or washout): no significant changes
proarrhythmia, clinical hypothyroidism, hyperthyroidism ([3]; in vivo): no cases of proarrhythmia, clinical hypothyroidism, or hyperthyroidism
serious AEs ([3]; in vivo): no serious AEs related to study drug
thyroid-stimulating hormone level reached after increase, individual patients ([3]; three patients, from 2.53, 3.51 and 0.68, normal range 0.27-4.2): 4.82 mU/L and 9.49 mU/L and 16.12 mU/L
PR interval reduction from baseline ([3]; washout): 30.7 ± 24.3%
CYP2C9 inhibition [4]: inhibitor; also recorded: inhibit CYP2C9
